US20180118699A1, “SK AND IK CHANNEL AGONISTS FOR TREATMENT OF HEART FAILURE” (THE TRUSTEES OF COLUMBIA UNIVERSITY IN THE CITY OF NEW YORK, priority 2015, published 2018)
Where two headings read alike, the source gives them in different places. Blank lines part the entries; values can stand above or below the compound they belong to.

What was measured:
[1] = system: mesenteric resistance vessels; test: Dilation of cannulated mesenteric resistance vessels
Protocol: Vessels were mounted onto cannulas and equilibrated at 80 mm Hg. […] The vessels were continuously constricted with 1 μM phenylephrine. […] At the conclusion of the experiment, the vessels were superfused in a Ca^2+-free solution to determine maximal dilation. Data shown are mean+s.e.m., relative to maximal dilation determined in Ca^2+-free solution. N=4.

[2] = biological target: T1, human KCNN3 (SK3) (Homo sapiens, UniProt P0DP23+Q9UGI6); test: Whole-cell patch clamp of KCa potassium channel activator activity in transfected HEK293 cells; assay type: cell-based; details: HEK293 SK3 whole-cell currents
T1 construct: GFP; expressed in transfected cells; host or cells: HEK293
Text: Currents were activated by 200 msec depolarizing ramps between −120 mV and +30 mV, from a holding potential of −90 mV, and then deactivated by repolarization to the holding potential. […] Colored bars indicate application of the XX-03-64 and XX-03-56 agonists.
Currents were activated by 200 msec depolarizing ramps between −120 mV and +30 mV, from a holding potential of −90 mV, and then deactivated by repolarization to the holding potential. Voltage ramps were applied every 5 seconds. The bath solution was 140 mM NaCl, 4 mM KCl, 0.1 mM CaCl2, 3 mM Mg Cl2, 10 mM HEPES (pH 7.4) and the pipette solution was 150 mM KCl, 5 mM TES (pH 7.2), 2 mM HEDTA, and 1 μM free Ca^2+. The free Ca^2+ concentration was calculated using the Max Chelator program and confirmed using a Ca^2+ electrode (Orion). Agonists were superfused in the bath solution.

[3] = IV bolus in mouse with systolic heart failure, left ventricular pressure-volume recording; assay type: in vivo; details: IV bolus 3 mg/kg, wildtype mouse with heart failure (FAC 38%)
Protocol: (§1) FIG. 22 depicts data of a wildtype mouse with heart failure (FAC 38%) given an IV bolus of SKA-31 (3 mg/kg) through the left internal jugular vein during simultaneous recording of left ventricular pressure and volume using a Milar conductance catheter inserted through the right carotid artery.
as §1, with “In this experiment,” for “FIG. 22 depicts data of”, “38%) was” for “38%)”, “artery. (FIG. 22)” for “artery.”
BK channel deficient mice and wildtype littermates developed an ischemic cardiomyopathy after surgical ligation of the left anterior descending coronary artery. Systolic heart failure was confirmed six weeks later by noting a fractional area of change (FAC) of 40% or lower on 2D echocardiography (Visualsonics Vevo 2100). […] Continuous LV pressure and volume measurements were recorded (MPVS Ultra by Milar with PowerLab 4/35 and LabChart by ADInstruments). After stable baseline LV measurements were recorded, vehicle (Cremophor EL made by Calbiochem) was infused intravenously into the cannulated internal jugular vein as a single bolus in the same volume later used to deliver an intravenous bolus of SKA-31 (Tocris) at 3 mg/kg. […]

[4] = system: SK channels; details: cited from earlier work
[5] = rats; cited from earlier work
[6] = mice; cited from earlier work
[7] = cited from earlier work
[8] = cited from earlier work; for lowering of mean arterial pressure: 30 mg/kg
[9] = system: SK3 and IK1 channels; test: Electrophysiology of freshly isolated mesenteric endothelial cells; assay type: cell-based, mice
Text: FIGS. 18A-18D collectively are graphs showing electrophysiological characterization of SK channels in freshly isolated mesenteric endothelial cells.
Endothelial cells were isolated from third-order mesenteric arteries of mice using enzymatic digestion followed by labeling the endothelial cells with CD34 antibody-labeled magnetic beads, collecting them using a magnet and then releasing them from the beads by competition. To measure both SK3 and IK1 currents, the cells were dialyzed with KCl-solution containing 3 μM free Ca^2+ and currents elicited using voltage ramps and by the activator NS-309 (see FIGS. 18A-18B).

[10] = biological target: T2, BK channels (Mus musculus, UniProt Q08460); test: Myogenic tone of pressurized mesenteric arteries with BK channel blocker; set-up: species or system mice; details: for increase of constriction: 120 mm Hg
T2 construct: from tissue; host or cells: third-order mesenteric resistance arteries of mice (sham and heart failure)
Protocol: FIG. 11A is a graph showing the effect of paxilline on myogenic tone measured at 120 mm Hg. Constriction induced by paxilline was calculated as the difference between myogenic tone (%) pre- and post-paxilline. Mean+s.e.m. No heart failure (no HF): N=6 vessels; heart failure (HF): N=5 vessels. ** P<0.01, Student's t test. FIG. 11B is a graph showing that myogenic tone is equivalent in paxilline-treated vessels from control mice and mice with heart failure. Mean+s.e.m. No HF: N=6 vessels; HF: N=5 vessels.
If HF alters myogenic tone by reducing BK channel expression and currents, then the effect of paxilline should be reduced. […] Inhibiting BK channels with paxilline in sham-treated (no HF) control mice caused an increase in myogenic tone, approximating the increased myogenic tone of vessels isolated from HF mice (see FIG. 11B).

[11] = two hours after IP injection of 100 μg (5 μg/g); cited from earlier work
[12] = cited from earlier work; remark: listed apart in the source
[13] = biological target: T2, BK channels; test: Whole cell K+ currents in freshly isolated mesenteric VSM cells; assay type: cell-based, mice; details: control VSM cells, 2 μM Ang II
Protocol: Whole cell K^+ currents at baseline (black trace) and after exposure to 1 μM paxilline (red trace in FIG. 14A) or 2 μM Ang II (blue trace in FIG. 14B). The intrapipette solution contained 9 μM Ca^2+.
Conversely, Ang II (2 μM) or phenylephrine (10 μM) may differentially modulate channel function in VSM cells isolated from HF mice. Ang II inhibits BK channel function through its effects on PKC, c-Src and Nox (Lu et al. 2010). Ang II causes less inhibition if BK channels are already modified by PKC, c-Src or Nox pathways, as compared to the effect on BK channels from control VSM cells, in which Ang II suppressed BK current by 50% (see FIG. 14B).
Two determinants of BK activity are used: STOCs and whole-cell current density. BK currents are a very large fraction of the total K^+ currents in freshly isolated mesenteric VSM cells (see FIG. 14A). […] PKCα and PKCδ may be the relevant PKC isoforms, which are further delineated using specific inhibitors.

[14] = mesenteric arteries from HF mice
[15] = mesenteric arteries from mice without HF

T2 sequence (Q08460 whole entry): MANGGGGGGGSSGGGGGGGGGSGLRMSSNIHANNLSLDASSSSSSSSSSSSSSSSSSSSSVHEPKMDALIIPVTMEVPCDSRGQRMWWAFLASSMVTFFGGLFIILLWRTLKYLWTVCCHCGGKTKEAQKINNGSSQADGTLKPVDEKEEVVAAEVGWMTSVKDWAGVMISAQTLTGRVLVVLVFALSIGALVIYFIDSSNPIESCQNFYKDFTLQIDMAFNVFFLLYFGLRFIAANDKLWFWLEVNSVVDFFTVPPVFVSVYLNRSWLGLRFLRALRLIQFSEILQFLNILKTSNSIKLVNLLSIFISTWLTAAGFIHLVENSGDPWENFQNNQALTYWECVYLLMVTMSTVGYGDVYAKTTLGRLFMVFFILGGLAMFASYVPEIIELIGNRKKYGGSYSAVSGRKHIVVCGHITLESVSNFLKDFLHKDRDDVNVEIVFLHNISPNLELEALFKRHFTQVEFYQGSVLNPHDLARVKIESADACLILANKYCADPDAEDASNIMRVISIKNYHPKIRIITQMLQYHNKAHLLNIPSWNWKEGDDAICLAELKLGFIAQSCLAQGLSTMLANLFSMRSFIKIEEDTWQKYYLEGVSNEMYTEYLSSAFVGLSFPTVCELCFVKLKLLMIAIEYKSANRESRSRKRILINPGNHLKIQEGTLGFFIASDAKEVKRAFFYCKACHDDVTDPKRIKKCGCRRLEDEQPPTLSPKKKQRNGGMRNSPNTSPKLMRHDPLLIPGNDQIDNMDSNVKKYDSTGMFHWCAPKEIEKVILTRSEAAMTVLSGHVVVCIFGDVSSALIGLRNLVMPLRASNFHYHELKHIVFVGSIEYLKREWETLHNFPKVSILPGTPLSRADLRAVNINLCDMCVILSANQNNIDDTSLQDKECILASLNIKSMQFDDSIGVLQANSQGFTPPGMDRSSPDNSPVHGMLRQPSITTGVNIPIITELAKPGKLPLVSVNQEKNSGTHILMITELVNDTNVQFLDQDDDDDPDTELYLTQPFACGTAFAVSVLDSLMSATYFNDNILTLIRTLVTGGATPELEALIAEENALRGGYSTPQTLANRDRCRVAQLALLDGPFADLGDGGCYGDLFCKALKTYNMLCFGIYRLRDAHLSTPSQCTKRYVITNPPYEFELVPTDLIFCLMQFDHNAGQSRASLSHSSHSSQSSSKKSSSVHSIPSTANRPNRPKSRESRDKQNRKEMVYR
T2 sequence (Q8CAE3 whole entry partner): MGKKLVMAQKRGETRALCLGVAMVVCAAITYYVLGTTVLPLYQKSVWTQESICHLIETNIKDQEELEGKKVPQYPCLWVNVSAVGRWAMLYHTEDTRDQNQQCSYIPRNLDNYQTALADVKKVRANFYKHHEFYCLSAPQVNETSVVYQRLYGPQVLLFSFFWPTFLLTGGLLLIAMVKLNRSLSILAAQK

Compound: Clc1ccccc1C(c1ccccc1)(c1ccccc1)n1cccn1 [TRAM-34]
effect on SKA-31 (1 μM)-mediated vasodilation ([1]; intraluminal 1 μM TRAM-34 and 100 nM apamin together, phenylephrine-constricted vessels): prevented

Note: rank of activity [2]: 2nd most active
Compound: COc1ccc2c(ccc3sc(N)nc32)c1 [XX-03-52]

Note: rank of activity [2]: Most active
Compound: Nc1nc2c(ccc3cc(Cl)ccc32)s1 [XX-03-56]

Compound: Nc1nc2c(ccc3ccccc32)s1 [XX-03-58, naphtha[1,2-d]thiazol-2-ylamine]
cardiac work [3]: improves cardiac work | EC50 of SK channel activation [4]: low μM range | acute toxicity [5]: no acute toxicity | acute toxicity [6]: no acute toxicity | free plasma level ([7]; 10 mg/kg IP, 24 h): 300 nM | plasma concentration ([7]; 10 mg/kg IP, mice, 2 h): 5500 nM | plasma concentration ([7]; 10 mg/kg IP, mice, 4 h): 1400 nM | plasma concentration ([7]; 10 mg/kg IP, mice, 24 h): 500 nM | free in plasma ([7]; mice): 61% | plasma protein-bound ([7]; mice): 39% | lowering of mean arterial pressure ([8]; mice with hypertension): 12 mm Hg | lowering of mean arterial pressure ([8]; normal mice): 6 mm Hg | lowering of blood pressure ([8]; single IP injection 10 mg/kg, at 24 h): 4 mm Hg | dilation of vessels ([1]; intraluminal 250 nM or 1 μM, vessels of control mice and mice with HF): effectively dilated the vessels | dilation of vessels ([1]; phenylephrine-constricted vessels of BK β1 null mice): caused dilatation of vessels from β1 null mice to a similar extent as vessels from WT mice

Note: rank of activity [2]: least active
Compound: Cc1ccc2ccc3sc(N)nc3c2c1 [XX-03-64]

Compound: C[N+](C)(C)CCOC(N)=O [carbachol]
endothelial cell membrane potential ([9]; carbachol 2 μM): hyperpolarization of endothelial cell membrane potential

Compound: CC(C)(O)[C@H]1O[C@H]2CC[C@@]3(C)[C@@](O)(CC[C@H]4Cc5c([nH]c6ccccc56)[C@@]43C)C2=CC1=O [paxilline]
relative increase in myogenic tone [10, 14]: 3% | increase of constriction [10, 14]: 0.9% | relative increase in myogenic tone [10, 15]: 51.9% | increase of constriction [10, 15]: 10.9%

Compound: CC(=O)c1c(O)c(C)c(O)c(Cc2c(O)c3c(c(C(=O)/C=C/c4ccccc4)c2O)OC(C)(C)C=C3)c1O [rottlerin, Rottlerin]
plasma level [11]: 2900 ng/mL

Compound: NS-309
activation of SK/IK channels ([9]; 5 μM NS-309): reversible NS-309 (5 μM) activation of SK/IK channels | endothelial cell membrane potential ([9]; NS309): caused hyperpolarization of the endothelial cell membrane potential | half-life [12]: extremely short half-life

Compound: angiotensin II (DRVYIHPF; Angiotensin-2; UniProt P01019 25-32, looked up) [Ang II, circulating angiotensin II]
suppression of BK current [13]: 50%
